Values after ≈ are worked out from the molar mass of the structure shown. Values joined by “and” are separate entries in the source; they are usually repeats but may differ in a detail not shown here. Equal entries are not always repeated. Where a SMILES comes first, the peptide text is derived from it.
Assays:
[1] = system: E. coli bacteria (ATCC 25922); test: Broth microdilution antibacterial assay (MIC) in Mueller–Hinton broth, pH 5; format: cell-based; conditions: for MIC: E. coli ATCC 25922, broth microdilution, Mueller–Hinton broth pH 5, 37 °C, 12 h, OD600, concentration at which bacterial growth reaches a minimum (at least 80% inhibited), average of two experiments, each in triplicate; for MIC50: E. coli, Mueller–Hinton broth pH 5, x50 from Origin fits of the growth curves of Figure 3 (concentration range 100 µM to 0.52 µM), fit error given, * error estimated in the range of the 1.5-fold dilution steps
Protocol: Therefore, the antibacterial properties of both series of peptides were analyzed in Mueller–Hinton (MH) broth at pH 5 by determining the minimal inhibitory concentrations (MICs).
Figure 3 Bacterial growth as a function of peptide concentration for the LAH4-Ln (A) and the LAH4-An series (B). The average of two experimental data sets (each data point derived from triplicates under the same experiment conditions) covering the concentration range 100 µM to 0.52 µM are shown by the relative bacterial growth when compared to bacteria in the absence of peptide (=100%). To guide the eye, the data have been fitted with the function ymin + (ymax − ymin)/(1 + (x/xo)^p)^s using the OriginPro software. […] The assay was performed in Mueller–Hinton broth, pH 5.
A broth microdilution assay was used to determine the minimal inhibitory concentration (MIC). A peptide aliquot of 1 mg was first solubilized in 50% ethanol (10 mM) then diluted in H2O to get a 300 μM peptide stock solution.
For all the activity tests, E. coli bacteria (ATCC® 25922^TM, Thermo Fisher Scientific, Courtaboeuf, France) were used. Briefly, some colonies from E. coli spread on gelose were resuspended in Mueller–Hinton broth, pH 7.4. After incubation at 37 °C for about 6 h this preculture was diluted to OD550nm = 0.2 in MH at pH5 and allowed to grow to reach the exponential phase (OD550nm = 1–2). After two-step dilution in MH pH5, the working bacteria suspension corresponding to 1.10^5–2.10^5 colony-forming units (CFU)/mL was obtained.
The antimicrobial testing was carried out in 96-well microplates (sterile polystyrene untreated with F-bottom, Thermo Scientific Nunc A/S, Roskilde, Denmark). The first column of the plate contains the highest final concentration (Cf) of peptide to test (two experiments were done: the first one starting at Cf 100 μM and a second one starting at 30 μM). All samples were added to the first column of the plate and subsequently spread onto the plate by a 1.5-fold dilution series in 10 steps. The last columns correspond to the positive and negative control conditions, respectively. Finally, the bacterial working suspension was distributed (50 μL at 1.10^5–2.10^5 CFU/mL in MH1X at pH 5) to each well except for the negative control (MH1X at pH5). The final volume was 100 μL/well and the range of peptide concentrations tested was from 100 μM to 1.73 μM for the first experiment and from 30 μM to 0.52 μM for the second experiment. The microplates were incubated at 37 °C for 12 h before bacterial growth was assessed by measuring the OD600. The initial bacterial density for each experiment was checked by spreading 100 μL of the working bacterial suspension, diluted 1/100 and 1/500 in MH1X, pH 5 on MH agar plates. After overnight incubation at 37 °C, the CFU were counted and the CFU/mL were determined. The percentage of bacterial growth compared to the positive control allows one to determine the MIC. The MIC values represent the average of the lowest tested peptide concentration (from both experiments) where most (at least 80%) of the bacterial growth is inhibited.

HCT116 cells = test: Luciferase protein transduction; format: cell-based, human; conditions: HCT116, 2 µg recombinant luciferase with 10-32 µg peptide, 3 h in serum-free medium, mean of duplicates; result in words
Protocol: To perform a rapid screening of the protein transduction activities of the two series of peptides, we selected to deliver the luciferase protein from Photinus pyralis, which has a molecular weight (MW) of 62 kDa and an isoelectric point (pI) of 6.3. Indeed, the measurement of the activity of this enzyme is fast and very sensitive. […] Increasing amounts of peptides were added to a fixed amount of luciferase, and after 3 h of incubation with the human colon cancer cells HCT116, enzymatic activity was measured.
Figure 1 Transduction of the luciferase protein. HCT116 cells in 48-well plates were treated with 2 µg of recombinant luciferase (Rec. Luc) (per duplicate) in the presence or absence of LAH4 peptides (LAH4-Ln series in (A) and LAH4-An series in (B)). After 3 h of incubation in serum-free medium, cells were washed once with 1 mL/well of phosphate buffer saline (PBS), lysed, and the luciferase activity was determined. […] For each peptide, four conditions were tested: 10, 16, 24 and 32 µg of peptide/2 µg recombinant luciferase, except for LAH4 (16, 24 and 32 µg). Non-complexed recombinant luciferase was used as the control (black bar). The hydrophilic angles are shown in italics. […] It is uncertain whether it counts as a property result. The luciferase activities are shown only as bars, with no printed numbers, and are left out.
Protein complexes were generated using increasing peptide/protein w/w ratios.
Then, 0.25 mL of serum-free medium containing the peptide/protein complexes was transferred into each well. After an incubation time of 3 h at 37 °C the medium was removed, cells were washed once with 1 mL/well of PBS, and then 100 μL of lysis buffer was added per well. Luciferase activity and protein content were measured as described above.

U87 cells = test: DNA transfection with p-Luc plasmid, luciferase expression; conditions: 1.5 µg pDNA with 7.5-25 µg peptide, 2 h 30 min, read one day post-transfection, mean of duplicates, result in words
Protocol: In vitro cell transfection experiments were performed using the plasmid p-Luc (7.6 kb), which is an expression plasmid encoding the firefly luciferase gene under the control of the human cytomegalovirus (CMV) immediate–early promoter. In total, 55,000 U87 cells were plated in 48-well plates one day before the experiment was performed. For transfection, 0.25 mL of serum-free culture medium containing the DNA complexes was deposited into each well of the duplicate. After incubation for approximately 2 h 30 min at 37 °C the medium was replaced with a fresh one containing serum. Luciferase activity was measured as described below in the cell lysate one day after transfection.
Transfection complexes were prepared as follows: for a duplicate, 1.5 μg of plasmid DNA and the desired amount of peptide were each diluted into 25 μL of acetate buffer pH 5 and gently mixed. DNA complexes were generated using increasing peptide/DNA w/w ratios. After 20 min of incubation at room temperature, the mixture was diluted with culture medium to obtain a final volume of 0.5 mL.
For luciferase activity, cells were harvested in 100 μL of lysis buffer (8 mM MgCl2, 1 mM DTT, 1 mM EDTA, 0.6% Triton X-100, 15% glycerol, and 25 mM Tris-phosphate buffer pH 7.8). The cell lysate was then transferred into Eppendorf tubes and centrifuged for 7 min at 10,000× g to pellet debris. Luciferase light units were measured in a 96-well plate format with a Centro LB luminometer (Berthold) from an aliquot of the supernatant (2 μL) with 1 s integration after automatic injection of 50 μL assay buffer (lysis buffer without Triton X-100 but supplemented with 2 mM ATP) and 50 μL of a luciferin solution (167 μM in water). Luciferase background was subtracted from each value and the protein content of the transfected cells was measured by Bradford dye-binding using the BioRad protein assay (Bio-Rad). The transfection efficiency was expressed as light units/s/mg protein (light units measured over a period of 1 s, and the values were then normalized after measurement of the amount of protein present in each well). The reported values are the mean of duplicates. Error bars represent the standard deviation of the mean.
glioblastoma U87 cells. Increasing amounts of peptide were mixed with a constant amount of reporter
plasmid (1.5 µg per duplicate of pDNA) and the complexes were incubated for 2h 30min with the
cells plated in 48-well plates. The transfection medium was then removed and replaced with fresh
culture medium supplemented with 10% serum. Luciferase activity was measured one day post-
transfection. The transfection efficiency is expressed as light units/s/mg protein and the reported
values are the mean of duplicates. Error bars represent the standard deviation of the mean.

Molecule | MIC [1] | MIC50 [1] | luciferase protein transduction efficiency (luciferase activity, light units/s/mg protein) (HCT116 cells) | DNA transfection activity (luciferase activity) (U87 cells)
CC(C)C[C@H](NC(=O)[C@H](C)NC(=O)[C@H](C)NC(=O)[C@H](CC(C)C)NC(=O)[C@H](CC(C)C)NC(=O)[C@H](CC(C)C)NC(=O)[C@H](C)NC(=O)[C@H](CC(C)C)NC(=O)[C@H](Cc1c[nH]cn1)NC(=O)[C@H](CC(C)C)NC(=O)[C@H](CC(C)C)NC(=O)[C@H](C)NC(=O)[C@H](CCCCN)NC(=O)[C@@H](N)CCCCN)C(=O)N[C@@H](Cc1c[nH]cn1)C(=O)N[C@@H](C)C(=O)N[C@@H](Cc1c[nH]cn1)C(=O)N[C@@H](CC(C)C)C(=O)N[C@@H](C)C(=O)N[C@@H](C)C(=O)N[C@@H](CC(C)C)C(=O)N[C@@H](Cc1c[nH]cn1)C(=O)N[C@@H](CC(C)C)C(=O)N[C@@H](CCCCN)C(=O)N[C@@H](CCCCN)C(=O)N[C@@H](C)C(N)=O [LAH4-L6] (H-KKALLHLALLLAALHAHLAALHLKKA-NH2) | below 2 µM | 0.9 µM (≈ 2.5 µg/mL) |  | 
CC(C)C[C@H](NC(=O)[C@H](C)NC(=O)[C@H](CC(C)C)NC(=O)[C@H](Cc1c[nH]cn1)NC(=O)[C@H](Cc1c[nH]cn1)NC(=O)[C@H](C)NC(=O)[C@H](CC(C)C)NC(=O)[C@H](CC(C)C)NC(=O)[C@H](C)NC(=O)[C@H](C)NC(=O)[C@H](Cc1c[nH]cn1)NC(=O)[C@H](CC(C)C)NC(=O)[C@H](CC(C)C)NC(=O)[C@H](C)NC(=O)[C@H](CC(C)C)NC(=O)[C@H](Cc1c[nH]cn1)NC(=O)[C@H](CC(C)C)NC(=O)[C@H](CC(C)C)NC(=O)[C@H](C)NC(=O)[C@H](CCCCN)NC(=O)[C@@H](N)CCCCN)C(=O)N[C@@H](C)C(=O)N[C@@H](CC(C)C)C(=O)N[C@@H](CCCCN)C(=O)N[C@@H](CCCCN)C(=O)N[C@@H](C)C(N)=O [LAH4-L4] (H-KKALLHLALLHAALLAHHLALALKKA-NH2) |  | 0.8 µM (≈ 2.22 µg/mL) |  | 
H-KKALLLAALHHLLALAHHLAALLKKA-NH2 [LAH4-A3, isomer of LAH4, LAH4-An series] |  | 7.5 µM |  | 
CC(C)C[C@H](NC(=O)[C@H](C)NC(=O)[C@H](C)NC(=O)[C@H](Cc1c[nH]cn1)NC(=O)[C@H](CC(C)C)NC(=O)[C@H](CC(C)C)NC(=O)[C@H](C)NC(=O)[C@H](CC(C)C)NC(=O)[C@H](Cc1c[nH]cn1)NC(=O)[C@H](CC(C)C)NC(=O)[C@H](CC(C)C)NC(=O)[C@H](C)NC(=O)[C@H](CCCCN)NC(=O)[C@@H](N)CCCCN)C(=O)N[C@@H](CC(C)C)C(=O)N[C@@H](C)C(=O)N[C@@H](Cc1c[nH]cn1)C(=O)N[C@@H](CC(C)C)C(=O)N[C@@H](C)C(=O)N[C@@H](C)C(=O)N[C@@H](CC(C)C)C(=O)N[C@@H](Cc1c[nH]cn1)C(=O)N[C@@H](CC(C)C)C(=O)N[C@@H](CCCCN)C(=O)N[C@@H](CCCCN)C(=O)N[C@@H](C)C(N)=O [LAH4-L5] (H-KKALLHLALLHAALLAHLAALHLKKA-NH2) | below 2 µM | 1.2 µM (≈ 3.33 µg/mL) | the most efficient peptides | 
CC(C)C[C@H](NC(=O)[C@H](C)NC(=O)[C@H](CCCCN)NC(=O)[C@@H](N)CCCCN)C(=O)N[C@@H](CC(C)C)C(=O)N[C@@H](C)C(=O)N[C@@H](Cc1c[nH]cn1)C(=O)N[C@@H](C)C(=O)N[C@@H](CC(C)C)C(=O)N[C@@H](Cc1c[nH]cn1)C(=O)N[C@@H](CC(C)C)C(=O)N[C@@H](CC(C)C)C(=O)N[C@@H](C)C(=O)N[C@@H](CC(C)C)C(=O)N[C@@H](CC(C)C)C(=O)N[C@@H](C)C(=O)N[C@@H](CC(C)C)C(=O)N[C@@H](Cc1c[nH]cn1)C(=O)N[C@@H](CC(C)C)C(=O)N[C@@H](C)C(=O)N[C@@H](Cc1c[nH]cn1)C(=O)N[C@@H](C)C(=O)N[C@@H](CC(C)C)C(=O)N[C@@H](CCCCN)C(=O)N[C@@H](CCCCN)C(=O)N[C@@H](C)C(N)=O [LAH4-L1] (H-KKALLAHALHLLALLALHLAHALKKA-NH2) | 20 µM and 17 µM | 8.6 µM (≈ 23.9 µg/mL) | among the least efficient | highest activity
H-KKALLALALHHLALLAHHLALALKKA-NH2 [LAH4-L3, isomer of LAH4, LAH4-Ln series] |  | 1.4 µM |  | 
H-KKALLLAALHHLAALALHLAHLLKKA-NH2 [LAH4-A2, isomer of LAH4, LAH4-An series] |  | 5 µM | the most efficient peptides | 
H-KKALLHALLAALLAHLHALLAHLKKA-NH2 [LAH4-A6, isomer of LAH4, LAH4-An series] |  | 2.9 µM |  | high levels of activity
H-KKALLALALHHLALLALHLAHALKKA-NH2 [LAH4-L2, isomer of LAH4, LAH4-Ln series] |  | 4.7 µM | the most efficient peptides | 
CC(C)C[C@H](NC(=O)[C@H](C)NC(=O)[C@H](C)NC(=O)[C@H](CC(C)C)NC(=O)[C@H](CC(C)C)NC(=O)[C@H](Cc1c[nH]cn1)NC(=O)[C@H](CC(C)C)NC(=O)[C@H](C)NC(=O)[C@H](Cc1c[nH]cn1)NC(=O)[C@H](C)NC(=O)[C@H](CC(C)C)NC(=O)[C@H](CC(C)C)NC(=O)[C@H](C)NC(=O)[C@H](CCCCN)NC(=O)[C@@H](N)CCCCN)C(=O)N[C@@H](C)C(=O)N[C@@H](CC(C)C)C(=O)N[C@@H](Cc1c[nH]cn1)C(=O)N[C@@H](CC(C)C)C(=O)N[C@@H](C)C(=O)N[C@@H](Cc1c[nH]cn1)C(=O)N[C@@H](CC(C)C)C(=O)N[C@@H](CC(C)C)C(=O)N[C@@H](CCCCN)C(=O)N[C@@H](CCCCN)C(=O)N[C@@H](C)C(N)=O [LAH4-A1] (H-KKALLAHALHLLAALALHLAHLLKKA-NH2) | 25 µM (≈ 69.5 µg/mL) | 13.9 µM (≈ 38.6 µg/mL) | among the least efficient | highest activity
CC(C)C[C@H](NC(=O)[C@H](C)NC(=O)[C@H](Cc1c[nH]cn1)NC(=O)[C@H](C)NC(=O)[C@H](CC(C)C)NC(=O)[C@H](CC(C)C)NC(=O)[C@H](C)NC(=O)[C@H](CCCCN)NC(=O)[C@@H](N)CCCCN)C(=O)N[C@@H](C)C(=O)N[C@@H](Cc1c[nH]cn1)C(=O)N[C@@H](CC(C)C)C(=O)N[C@@H](C)C(=O)N[C@@H](CC(C)C)C(=O)N[C@@H](CC(C)C)C(=O)N[C@@H](C)C(=O)N[C@@H](CC(C)C)C(=O)N[C@@H](Cc1c[nH]cn1)C(=O)N[C@@H](CC(C)C)C(=O)N[C@@H](C)C(=O)N[C@@H](CC(C)C)C(=O)N[C@@H](Cc1c[nH]cn1)C(=O)N[C@@H](CC(C)C)C(=O)N[C@@H](CCCCN)C(=O)N[C@@H](CCCCN)C(=O)N[C@@H](C)C(N)=O [LAH4-L0] (H-KKALLAHALAHLALLALHLALHLKKA-NH2) | 6 µM (≈ 16.7 µg/mL) | 3.1 µM (≈ 8.61 µg/mL) |  | 
